The values below come from the NIST ThermoML archive (doi:10.1016/j.jct.2013.04.017).

The conditions of data set [1]: 313.15 K; 101 kPa; Liquid; Sing-around technique in a fixed-path interferometer.
Data set [2] is described as follows: mn = molality of the nth substance listed, in mol/kg. Conditions: 313.15 K; 101 kPa; Liquid; fixed-path interferometer; m2 = 0.

± gives the expanded uncertainty stated by the source.

On to `O` [water], for which the speed of sound in data set [1] worked out at 1528.9 ± 1.1 m/s.

For `O` [water] + O=C(O)CC(O)(CC(=O)O)C(=O)O, the speed of sound in data set [2] amounted to 1528.9 ± 1.1 m/s.

A word on the speed of sound: it is the propagation velocity of pressure waves in the medium.
